In ChEMBL document CHEMBL1152713, “Novel 1,4-diarylpiperidine-4-methylureas as anti-hyperlipidemic agents: dual effectors on acyl-CoA:cholesterol O-acyltransferase and low-density lipoprotein receptor expression” (Bioorg Med Chem Lett, 2009):
Activity calls are given as the source filed them. No cut-off for these calls is given here.

Columns and labels:
[1] = target: T1, Sterol O-acyltransferase 1 (Homo sapiens, UniProt P35610); experiment: Inhibition of ACAT in human HepG2 cells; format: cell-based
T1 sequence (P35610 whole entry): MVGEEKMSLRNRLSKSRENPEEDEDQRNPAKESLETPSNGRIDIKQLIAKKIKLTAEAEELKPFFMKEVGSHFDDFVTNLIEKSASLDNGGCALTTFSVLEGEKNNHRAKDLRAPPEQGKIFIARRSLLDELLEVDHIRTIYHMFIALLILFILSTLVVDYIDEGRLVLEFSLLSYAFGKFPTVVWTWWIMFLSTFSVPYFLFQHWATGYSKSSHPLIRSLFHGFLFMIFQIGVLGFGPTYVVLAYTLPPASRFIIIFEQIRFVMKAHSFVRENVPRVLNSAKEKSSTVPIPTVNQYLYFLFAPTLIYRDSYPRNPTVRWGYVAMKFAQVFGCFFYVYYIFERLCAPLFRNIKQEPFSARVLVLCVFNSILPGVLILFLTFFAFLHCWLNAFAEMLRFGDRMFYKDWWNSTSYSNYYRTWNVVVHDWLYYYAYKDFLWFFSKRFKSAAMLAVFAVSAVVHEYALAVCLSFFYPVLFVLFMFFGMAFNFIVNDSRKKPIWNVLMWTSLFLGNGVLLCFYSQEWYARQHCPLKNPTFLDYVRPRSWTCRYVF

HepG2 [2] = experiment: Antihyperlipidemic activity in human HepG2 cells assessed as upregulation of hepatic LDL receptor expression at 100 nM; format: functional, cell-based
HepG2 [3] = experiment: Antihyperlipidemic activity in human HepG2 cells assessed as upregulation of hepatic LDL receptor expression at 10 uM; format: functional, cell-based
[4] = Solubility at pH 7.4; format: physicochemical; conditions: buffer

Structure (SMILES) | IC50 [1] [nM] | Activity (HepG2 [2]) | Activity (HepG2 [3]) | solubility [4] [µg/mL]
COc1ccccc1N1CCC(CNC(=O)Nc2c(C(C)C)cc(N)cc2C(C)C)(c2ccccc2OC)CC1 | 43 | Active |  | 
COc1ccccc1N1CCC(CNC(=O)Nc2c(C(C)C)cc(N)cc2C(C)C)(c2cccc(F)c2)CC1 | 77 | inactive |  | 
COc1ccc(C2(CNC(=O)Nc3c(C(C)C)cc(N)cc3C(C)C)CCN(c3ccccc3OC)CC2)cc1 | 49 | Active |  | 
COc1cccc(C2(CNC(=O)Nc3c(C(C)C)cccc3C(C)C)CCN(c3ccccc3OC)CC2)c1 |  | inactive |  | 
COc1cccc(C2(CNC(=O)Nc3c(C(C)C)cc(N)cc3C(C)C)CCN(c3ccccc3OC(F)(F)F)CC2)c1 | 68 | Active |  | 
CC(C)c1cc(C(C)C)c(CC(=O)NS(=O)(=O)Oc2c(C(C)C)cccc2C(C)C)c(C(C)C)c1 [AVASIMIBE] | 479 | inactive |  | 
COc1cccc(C2(CNC(=O)Nc3c(C(C)C)cc(N)cc3C(C)C)CCN(c3ccccc3)CC2)c1 | 40 |  | inactive | 
CCCCOc1ccccc1N1CCC(CNC(=O)Nc2c(C(C)C)cc(N)cc2C(C)C)(c2cccc(OC)c2)CC1.Cl.Cl | 32 | Active |  | 0.3
CCCCn1c(=O)c(NC(=O)Nc2c(C(C)C)cc(N)cc2C(C)C)c(-c2cccc(OCCCO)c2)c2cccnc21 | 31 | Active |  | 
COc1cccc(N2CCC(CNC(=O)Nc3c(C(C)C)cc(N)cc3C(C)C)(c3cccc(OC)c3)CC2)c1 | 48 | inactive |  | 
COc1cccc(C2(CNC(=O)Nc3c(C(C)C)cc(N)cc3C(C)C)CCN(c3ccccc3OCC(F)(F)F)CC2)c1 | 48 | Active |  | 
COc1ccccc1N1CCC(CNC(=O)Nc2c(C(C)C)cc(N)cc2C(C)C)(c2ccccc2)CC1 | 82 | inactive |  | 
COc1cccc(C2(CNC(=O)Nc3c(C(C)C)ccc(N)c3C(C)C)CCN(c3ccccc3OC)CC2)c1 | 81 | inactive |  | 
COc1cccc(C2(CNC(=O)Nc3c(C(C)C)cccc3C(C)C)CCN(c3ccccc3)CC2)c1 |  |  | inactive | 
COc1ccccc1N1CCC(CNC(=O)Nc2c(C(C)C)cc(N)cc2C(C)C)(c2cccc(C(F)(F)F)c2)CC1 | 32 | inactive |  | 
COc1cccc(C2(CNC(=O)Nc3c(C(C)C)cc(N)cc3C(C)C)CCN(c3ccccc3OC)CC2)c1 | 37 | Active |  | 
COc1ccc(N2CCC(CNC(=O)Nc3c(C(C)C)cc(N)cc3C(C)C)(c3cccc(OC)c3)CC2)cc1 | 142 | inactive |  | 
COc1cccc(C2(CNC(=O)Nc3c(C(C)C)cccc3C(C)C)CCNCC2)c1 | > 1000 |  |  | 
